Organism: Rattus norvegicus
Assay: DrugMatrix - Regimen: Daily Repeat
Format: toxicity, organism-based, Sprague-Dawley
Design: regimen Daily Repeat, gender Male, age 6-8 weeks
Details: in vivo, po, route oral GAVAGE, vehicle .5 % CMC; for BASOPHIL / EOSINOPHIL / ERYTHROCYTE COUNT / HEMATOCRIT / HEMOGLOBIN / LEUKOCYTE COUNT / LYMPHOCYTE / MEAN CORPUSCULAR HEMOGLOBIN / MEAN CORPUSCULAR HEMOGLOBIN CONCENTRATION / MEAN CORPUSCULAR VOLUME / MONOCYTE / NEUTROPHIL / PLATELET COUNT: tissue Blood; for ALANINE AMINOTRANSFERASE / ALBUMIN / ALKALINE PHOSPHATASE / ASPARTATE AMINOTRANSFERASE / BLOOD UREA NITROGEN / CHLORIDE / CHOLESTEROL / CREATINE PHOSPHOKINASE / CREATININE / GLUCOSE / PHOSPHORUS / POTASSIUM / SODIUM / TOTAL BILIRUBIN / TOTAL PROTEIN: tissue Plasma
[1] = 0 mg/kg, 72 h, dose level Control, time 3 day
[2] = 0 mg/kg, 120 h, dose level Control, time 5 day
[3] = 750 mg/kg, 72 h, dose level Low, time 3 day
[4] = 750 mg/kg, 120 h, dose level Low, time 5 day
[5] = 2000 mg/kg, 72 h, dose level High, time 3 day
[6] = 2000 mg/kg, 120 h, dose level High, time 5 day

NCC(=O)O [GLYCINE]
BASOPHIL [1]: 0%
EOSINOPHIL [1]: 0%
ERYTHROCYTE COUNT [1]: 6.34 x10E6/uL
HEMATOCRIT [1]: 37.62%
HEMOGLOBIN [1]: 14.82 G/DL
LEUKOCYTE COUNT [1]: 11.18 x10E3/uL
LYMPHOCYTE [1]: 87.5%
MEAN CORPUSCULAR HEMOGLOBIN [1]: 23.48 pg
MEAN CORPUSCULAR HEMOGLOBIN CONCENTRATION [1]: 39.5 G/DL
MEAN CORPUSCULAR VOLUME [1]: 59.45 fL
MONOCYTE [1]: 1.67%
NEUTROPHIL [1]: 10.83%
PLATELET COUNT [1]: 1074.83 x10E3/uL
ALANINE AMINOTRANSFERASE [1]: 36.5 u/L
ALBUMIN [1]: 3.9 G/DL
ALKALINE PHOSPHATASE [1]: 370.17 u/L
ASPARTATE AMINOTRANSFERASE [1]: 63.17 u/L
BLOOD UREA NITROGEN [1]: 16.83 mg/dL
CHLORIDE [1]: 99.33 MEQ/L
CHOLESTEROL [1]: 64.33 mg/dL
CREATINE PHOSPHOKINASE [1]: 127 u/L
CREATININE [1]: 0.55 mg/dL
GLUCOSE [1]: 173.5 mg/dL
PHOSPHORUS [1]: 10.08 mg/dL
POTASSIUM [1]: 6.23 MEQ/L
SODIUM [1]: 143.5 MEQ/L
TOTAL BILIRUBIN [1]: 0.52 mg/dL
TOTAL PROTEIN [1]: 6.35 G/DL
BASOPHIL [2]: 0%
EOSINOPHIL [2]: 0.17%
ERYTHROCYTE COUNT [2]: 6.12 x10E6/uL
HEMATOCRIT [2]: 37.08%
HEMOGLOBIN [2]: 14.82 G/DL
LEUKOCYTE COUNT [2]: 11.87 x10E3/uL
LYMPHOCYTE [2]: 83.33%
MEAN CORPUSCULAR HEMOGLOBIN [2]: 24.25 pg
MEAN CORPUSCULAR HEMOGLOBIN CONCENTRATION [2]: 39.97 G/DL
MEAN CORPUSCULAR VOLUME [2]: 60.65 fL
MONOCYTE [2]: 1.5%
NEUTROPHIL [2]: 15%
PLATELET COUNT [2]: 1042.83 x10E3/uL
ALANINE AMINOTRANSFERASE [2]: 46 u/L
ALBUMIN [2]: 3.82 G/DL
ALKALINE PHOSPHATASE [2]: 369.5 u/L
ASPARTATE AMINOTRANSFERASE [2]: 65 u/L
BLOOD UREA NITROGEN [2]: 16.33 mg/dL
CHLORIDE [2]: 100.67 MEQ/L
CHOLESTEROL [2]: 57.17 mg/dL
CREATINE PHOSPHOKINASE [2]: 130 u/L
CREATININE [2]: 0.53 mg/dL
GLUCOSE [2]: 163.33 mg/dL
PHOSPHORUS [2]: 9.53 mg/dL
POTASSIUM [2]: 6.27 MEQ/L
SODIUM [2]: 144.83 MEQ/L
TOTAL BILIRUBIN [2]: 0.55 mg/dL
TOTAL PROTEIN [2]: 6.32 G/DL
BASOPHIL [3]: 0%
EOSINOPHIL [3]: 0%
ERYTHROCYTE COUNT [3]: 6.2 x10E6/uL
HEMATOCRIT [3]: 37.37%
HEMOGLOBIN [3]: 14.17 G/DL
LEUKOCYTE COUNT [3]: 11.6 x10E3/uL
LYMPHOCYTE [3]: 90%
MEAN CORPUSCULAR HEMOGLOBIN [3]: 22.83 pg
MEAN CORPUSCULAR HEMOGLOBIN CONCENTRATION [3]: 37.97 G/DL
MEAN CORPUSCULAR VOLUME [3]: 60.17 fL
MONOCYTE [3]: 0%
NEUTROPHIL [3]: 10%
PLATELET COUNT [3]: 1191.67 x10E3/uL
ALANINE AMINOTRANSFERASE [3]: 28 u/L
ALBUMIN [3]: 3.4 G/DL
ALKALINE PHOSPHATASE [3]: 270.33 u/L
ASPARTATE AMINOTRANSFERASE [3]: 46.67 u/L
BLOOD UREA NITROGEN [3]: 9 mg/dL
CHLORIDE [3]: 102.33 MEQ/L
CHOLESTEROL [3]: 55.33 mg/dL
CREATINE PHOSPHOKINASE [3]: 104.33 u/L
CREATININE [3]: 0.4 mg/dL
GLUCOSE [3]: 165 mg/dL
PHOSPHORUS [3]: 10.73 mg/dL
POTASSIUM [3]: 6.07 MEQ/L
SODIUM [3]: 148 MEQ/L
TOTAL BILIRUBIN [3]: 0.17 mg/dL
TOTAL PROTEIN [3]: 5.43 G/DL
BASOPHIL [4]: 0%
EOSINOPHIL [4]: 0%
ERYTHROCYTE COUNT [4]: 6.26 x10E6/uL
HEMATOCRIT [4]: 38.2%
HEMOGLOBIN [4]: 15 G/DL
LEUKOCYTE COUNT [4]: 13 x10E3/uL
LYMPHOCYTE [4]: 89.67%
MEAN CORPUSCULAR HEMOGLOBIN [4]: 23.97 pg
MEAN CORPUSCULAR HEMOGLOBIN CONCENTRATION [4]: 39.27 G/DL
MEAN CORPUSCULAR VOLUME [4]: 61.1 fL
MONOCYTE [4]: 0.33%
NEUTROPHIL [4]: 10%
PLATELET COUNT [4]: 1041.67 x10E3/uL
ALANINE AMINOTRANSFERASE [4]: 32 u/L
ALBUMIN [4]: 3.73 G/DL
ALKALINE PHOSPHATASE [4]: 311.33 u/L
ASPARTATE AMINOTRANSFERASE [4]: 55.33 u/L
BLOOD UREA NITROGEN [4]: 12.33 mg/dL
CHLORIDE [4]: 99.33 MEQ/L
CHOLESTEROL [4]: 59.67 mg/dL
CREATINE PHOSPHOKINASE [4]: 148 u/L
CREATININE [4]: 0.57 mg/dL
GLUCOSE [4]: 154 mg/dL
PHOSPHORUS [4]: 11.67 mg/dL
POTASSIUM [4]: 5.97 MEQ/L
SODIUM [4]: 144.33 MEQ/L
TOTAL BILIRUBIN [4]: 0.33 mg/dL
TOTAL PROTEIN [4]: 6.07 G/DL
BASOPHIL [5]: 0%
EOSINOPHIL [5]: 0%
ERYTHROCYTE COUNT [5]: 6.16 x10E6/uL
HEMATOCRIT [5]: 36.47%
HEMOGLOBIN [5]: 14 G/DL
LEUKOCYTE COUNT [5]: 12.17 x10E3/uL
LYMPHOCYTE [5]: 89.67%
MEAN CORPUSCULAR HEMOGLOBIN [5]: 22.77 pg
MEAN CORPUSCULAR HEMOGLOBIN CONCENTRATION [5]: 38.4 G/DL
MEAN CORPUSCULAR VOLUME [5]: 59.23 fL
MONOCYTE [5]: 1.33%
NEUTROPHIL [5]: 9%
PLATELET COUNT [5]: 1124.67 x10E3/uL
ALANINE AMINOTRANSFERASE [5]: 31.33 u/L
ALBUMIN [5]: 3.53 G/DL
ALKALINE PHOSPHATASE [5]: 262.33 u/L
ASPARTATE AMINOTRANSFERASE [5]: 51.67 u/L
BLOOD UREA NITROGEN [5]: 12 mg/dL
CHLORIDE [5]: 100.33 MEQ/L
CHOLESTEROL [5]: 57.33 mg/dL
CREATINE PHOSPHOKINASE [5]: 113.33 u/L
CREATININE [5]: 0.37 mg/dL
GLUCOSE [5]: 157.67 mg/dL
PHOSPHORUS [5]: 12.17 mg/dL
POTASSIUM [5]: 6.6 MEQ/L
SODIUM [5]: 145.67 MEQ/L
TOTAL BILIRUBIN [5]: 0.2 mg/dL
TOTAL PROTEIN [5]: 5.57 G/DL
BASOPHIL [6]: 0%
EOSINOPHIL [6]: 0.33%
ERYTHROCYTE COUNT [6]: 6.21 x10E6/uL
HEMATOCRIT [6]: 36.87%
HEMOGLOBIN [6]: 14.97 G/DL
LEUKOCYTE COUNT [6]: 15.13 x10E3/uL
LYMPHOCYTE [6]: 88.67%
MEAN CORPUSCULAR HEMOGLOBIN [6]: 24.1 pg
MEAN CORPUSCULAR HEMOGLOBIN CONCENTRATION [6]: 40.6 G/DL
MEAN CORPUSCULAR VOLUME [6]: 59.4 fL
MONOCYTE [6]: 1.33%
NEUTROPHIL [6]: 9.67%
PLATELET COUNT [6]: 1238.67 x10E3/uL
ALANINE AMINOTRANSFERASE [6]: 33.67 u/L
ALBUMIN [6]: 3.63 G/DL
ALKALINE PHOSPHATASE [6]: 237 u/L
ASPARTATE AMINOTRANSFERASE [6]: 55.67 u/L
BLOOD UREA NITROGEN [6]: 12.33 mg/dL
CHLORIDE [6]: 100.67 MEQ/L
CHOLESTEROL [6]: 62 mg/dL
CREATINE PHOSPHOKINASE [6]: 118.67 u/L
CREATININE [6]: 0.5 mg/dL
GLUCOSE [6]: 159.67 mg/dL
PHOSPHORUS [6]: 11.77 mg/dL
POTASSIUM [6]: 6.63 MEQ/L
SODIUM [6]: 146.67 MEQ/L
TOTAL BILIRUBIN [6]: 0.27 mg/dL
TOTAL PROTEIN [6]: 5.93 G/DL

Reference: ChEMBL document CHEMBL3885881, “DrugMatrix”
